Reference: US20110263649A1, “CRYSTALLINE FORM OF LENALIDOMIDE AND A PROCESS FOR ITS PREPARATION” (GENERICS [UK] LIMITED, priority 2008, published 2011)
Where two headings read alike, the source gives them in different places.

Legend:
[1] = as disclosed in WO 2005/023192; cited from earlier work
[2] = aqueous solubility of lenalidomide crystalline forms; conditions: forms prepared and tested by the inventors
[3] = as indicated in WO 2005/023192; cited from earlier work

| Structure (SMILES) | weight loss upon storage [1] | aqueous solubility [2] | aqueous solubility [3] |
| --- | --- | --- | --- |
| Nc1cccc2c1CN(C1CCC(=O)NC1=O)C2=O (stereo not shown) [form E, lenalidomide] | the greatest weight loss upon storage | – | – |
| Nc1cccc2c1CN(C1CCC(=O)NC1=O)C2=O (stereo not shown) [novel crystalline form, 3-(4-amino-1-oxo-1,3-dihydro-isoindol-2-yl)-piperidine-2,6-dione] | – | High solubility in aqueous medium | – |
| Nc1cccc2c1CN(C1CCC(=O)NC1=O)C2=O (stereo not shown) [polymorphic mixture, lenalidomide] | – | poor aqueous solubility | poorly soluble in water |
